Experimental data as given in patent US7538107B2, “Oxazinan-2-one derivatives useful as PR modulators” (Wyeth, priority 2006, dated 2009).

Assays:
[1] = molecular target: T1, progesterone receptor (Homo sapiens, UniProt P06401); assay: Effects of progestins and antiprogestins on alkaline phosphatase activity in T47D cells; assay type: cell-based; details: antagonist mode in the presence of 1 nM progesterone, 24 h, read-out: T47D Alkaline Phosphatase Activity IC50 (nM) or % inhibition
T1 construct: determining a compound's effect on alkaline phosphatase activity in T47D cells; endogenous in cells; host or cells: T47D cells
T1 sequence (P06401 1-933): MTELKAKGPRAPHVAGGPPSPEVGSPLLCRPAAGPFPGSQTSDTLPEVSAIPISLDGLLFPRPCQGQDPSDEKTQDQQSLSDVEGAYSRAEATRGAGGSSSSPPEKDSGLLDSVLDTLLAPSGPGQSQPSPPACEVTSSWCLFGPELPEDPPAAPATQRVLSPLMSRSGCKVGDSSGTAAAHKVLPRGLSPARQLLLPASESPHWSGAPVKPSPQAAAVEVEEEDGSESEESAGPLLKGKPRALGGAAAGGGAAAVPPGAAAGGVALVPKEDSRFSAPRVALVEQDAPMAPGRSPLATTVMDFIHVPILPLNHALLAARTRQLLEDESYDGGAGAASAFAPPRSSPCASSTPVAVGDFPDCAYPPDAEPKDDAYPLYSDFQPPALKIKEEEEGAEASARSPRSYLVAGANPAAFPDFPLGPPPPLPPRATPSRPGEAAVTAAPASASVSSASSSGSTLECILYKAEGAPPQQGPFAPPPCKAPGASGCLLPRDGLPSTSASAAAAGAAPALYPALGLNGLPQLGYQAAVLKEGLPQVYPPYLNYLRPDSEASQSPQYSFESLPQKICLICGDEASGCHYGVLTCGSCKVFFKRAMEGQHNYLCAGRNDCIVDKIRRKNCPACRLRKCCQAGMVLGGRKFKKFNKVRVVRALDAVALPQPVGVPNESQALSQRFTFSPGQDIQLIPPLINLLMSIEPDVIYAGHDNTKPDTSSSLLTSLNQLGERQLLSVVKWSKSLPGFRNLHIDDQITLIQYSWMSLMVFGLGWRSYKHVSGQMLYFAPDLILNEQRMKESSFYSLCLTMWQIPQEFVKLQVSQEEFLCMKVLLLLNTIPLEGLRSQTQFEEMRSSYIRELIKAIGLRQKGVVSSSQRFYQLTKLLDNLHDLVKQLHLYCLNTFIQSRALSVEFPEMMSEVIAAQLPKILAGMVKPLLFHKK
Procedure: (1) Effects of Progestins and Antiprogestins on Alkaline Phosphatase Activity in T47D Cells
PURPOSE: To identify progestins or antiprogestins by determining a compound's effect on alkaline phosphatase activity in T47D cells.
Culture Medium: • DMEM:F12 (1:1) (GIBCO, BRL) supplemented with 5% (v/v) charcoal stripped fetal bovine serum (not heat-inactivated), 100 U/mL penicillin, 100 μg/mL streptomycin, and 2 mM the GlutaMax™ reagent (GEBCO, BRL).
Alkaline phosphatase assay buffer: • I. 0.1M Tris-HCl, pH 9.8, containing 0.2% the Triton® X-100 reagent • II. 0.1M Tris-HCl, pH 9.8, containing 4 mM p-nitrophenyl phosphate (Sigma). B. Cell Culture and Treatment:
Frozen T47D cells were thawed in a 37° C. water bath and diluted to 280,000 cells/mL in culture medium. To each well in a 96-well plate (Falcon, Becton Dickinson Labware), 180 μL of diluted cell suspension was added.
Twenty μL of reference or test compounds diluted in the culture medium was then added to each well. […]
For reference and test compounds, a dose response curve was generated for dose (X-axis) vs. the rate of enzyme reaction (slope) (Y-axis). […] EC50 or IC50 values were calculated from the retransformed values. […]
Progesterone and trimegestone were reference progestins and RU486 was the reference antiprogestin. All reference compounds were run in full dose response curves and the EC50 and IC50 values were calculated.

| melting point | IC50 [1] | SMILES |
| --- | --- | --- |
| 197 to 199 °C | – | C[C@@H]1COC(=O)N1c1nc(-c2ccc(Br)cc2)cs1 [Example 1, (4R)-3-[4-(4-Bromophenyl)-1,3-thiazol-2-yl]-4-methyl-1,3-oxazolidin-2-one] |
| 225 to 227 °C | 238 nM | O=C1OCCCN1c1nc(-c2ccc(Br)cc2)cs1 [Example 3, 3-[4-(4-Bromophenyl)-1,3-thiazol-2-yl]-1,3-oxazinan-2-one] |
| 169 to 171 °C | 1370 nM | CC1(C)COC(=O)N(c2nc(-c3ccc(Br)cc3)cs2)C1 [Example 4, 3-[4-(4-Bromophenyl)-1,3-thiazol-2-yl]-5,5-dimethyl-1,3-oxazinan-2-one] |
| 114 to 116 °C | – | CCC[C@@H]1COC(=O)N1c1nc(-c2ccc(Br)cc2)cs1 [Example 2, (4R)-3-[4-(4-Bromophenyl)-1,3-thiazol-2-yl]-4-propyl-1,3-oxazolidin-2-one] |
